± gives the expanded uncertainty stated by the source.
Tests used:
[1] = refractive index (Na D-line) (dimensionless); conditions: 100 kPa, Liquid, Standard Abbe refractometry
[2] = 101.33 kPa, Liquid, Pycnometric method
[3] = relative permittivity at various frequencies (dimensionless); conditions: 100 kPa, Liquid, Frequency=2 MHz, Parallel plate capacitor
[4] = refractive index (Na D-line) (dimensionless); xn = mol fraction of the nth substance listed; conditions: 100 kPa, Liquid, Standard Abbe refractometry, x1 = 1
[5] = relative permittivity at various frequencies (dimensionless); xn = mol fraction of the nth substance listed; conditions: 100 kPa, Liquid, Frequency=2 MHz, Parallel plate capacitor, x1 = 1

| refractive index ([1]; 303.15 K) | refractive index ([1]; 313.15 K) | refractive index ([1]; 323.15 K) | refractive index ([1]; 333.15 K) | mass density ([2]; 303.15 K) [kg/m3] | relative permittivity ([3]; 303.15 K) | relative permittivity ([3]; 313.15 K) | relative permittivity ([3]; 323.15 K) | relative permittivity ([3]; 333.15 K) | mass density ([2]; 313.15 K) [kg/m3] | mass density ([2]; 323.15 K) [kg/m3] | mass density ([2]; 333.15 K) [kg/m3] | refractive index ([4]; 303.15 K) | refractive index ([4]; 313.15 K) | refractive index ([4]; 323.15 K) | refractive index ([4]; 333.15 K) | relative permittivity ([5]; 303.15 K) | relative permittivity ([5]; 313.15 K) | relative permittivity ([5]; 323.15 K) | relative permittivity ([5]; 333.15 K) | Compound |
| --- | --- | --- | --- | --- | --- | --- | --- | --- | --- | --- | --- | --- | --- | --- | --- | --- | --- | --- | --- | --- |
| 1.56 ± 0.002 | 1.558 ± 0.002 | 1.553 ± 0.002 | 1.55 ± 0.002 | 1467.6 ± 6.1 | 7.01 ± 0.6 | 6.85 ± 0.6 | 6.74 ± 0.6 | 6.6 ± 0.6 | – | – | – | – | – | – | – | – | – | – | – | COc1cccc(Br)c1 [1-bromo-3-methoxybenzene] |
| 1.383 ± 0.002 | 1.38 ± 0.002 | 1.376 ± 0.002 | 1.371 ± 0.002 | 793.9 ± 6 | 19.49 ± 0.6 | 18.53 ± 0.6 | 17.59 ± 0.6 | 16.03 ± 0.6 | 791.7 ± 6 | 784.4 ± 6 | 775.6 ± 6 | – | – | – | – | – | – | – | – | CCCO [propan-1-ol] |
| – | – | – | – | – | – | – | – | – | – | – | – | 1.383 ± 0.002 | 1.38 ± 0.002 | 1.376 ± 0.002 | 1.371 ± 0.002 | 19.49 ± 0.6 | 18.53 ± 0.6 | 17.59 ± 0.6 | 16.03 ± 0.6 | CCCO [propan-1-ol] + COc1cccc(Br)c1 |

Source: the NIST ThermoML archive (doi:10.1021/acs.jced.5b00256)
